Data published in the NIST ThermoML archive (doi:10.1021/acs.jced.9b00173).
Numbers after ± are expanded uncertainties.

Assay: xn = mol fraction of the nth substance listed
Details: 303.15 K, 101.3 kPa, Liquid, Concentric cylinders viscometry

**Q.** Which viscosity (x1 = 0.5) does the source give for `c1nnn[nH]1` [1H-tetrazole] + CCCC[P+](CCCC)(CCCC)CCCC.[Cl-] here?
**A.** 40.22 ± 1.5 mPa·s

**Q.** For `c1nnn[nH]1` [1H-tetrazole] + CCCC[N+](CCCC)(CCCC)CCCC.[Br-], which viscosity (x1 = 0.5) is on record?
**A.** 279.15 ± 15 mPa·s

**Q.** With `c1nnn[nH]1` [1H-tetrazole] + CCCC[N+](CCCC)(CCCC)CCCC.[Cl-] as the compound, how does the viscosity (x1 = 0.5) read?
**A.** 87.88 ± 2.8 mPa·s

**Q.** With `CCCC[P+](CCCC)(CCCC)CCCC.[Cl-]` [tetrabutylphosphonium chloride] + c1c[nH]cn1 as the compound, how does the viscosity (x2 = 0.5) read?
**A.** 52.34 ± 1.6 mPa·s

**Q.** With `c1nnn[nH]1` [1H-tetrazole] + CCCC[P+](CCCC)(CCCC)CCCC.[Br-] as the compound, how does the viscosity (x1 = 0.5) read?
**A.** 68.26 ± 2.1 mPa·s

**Q.** Which viscosity (x1 = 0.5) does the source give for `c1nc[nH]n1` [1H-1,2,4-triazole] + CCCC[P+](CCCC)(CCCC)CCCC.[Cl-] here?
**A.** 67.23 ± 2 mPa·s
